Data taken from ChEMBL document CHEMBL1127853, “Novel synthesis of cyclic amide-linked analogues of angiotensins II and III” (J Med Chem, 1994).
Where a SMILES comes first, the peptide text is derived from it.

Tests used:
Rattus norvegicus [1] = species: Rattus norvegicus; test: Tested for antagonist activity in rat uterus with respect to human angiotensin II as reference; type: functional; conditions: read-out: pA2 (converted)
Rattus norvegicus [2] = species: Rattus norvegicus; test: Tested for agonist activity in rat uterus with respect to human angiotensin II; type: functional

SMILES	Kb (Rattus norvegicus [1]) [µM]	Agonist activity (Rattus norvegicus [2]) [%]
CC[C@H](C)[C@@H]1NC(=O)[C@H](Cc2ccc(O)cc2)NC(=O)[C@H](Cc2ccccc2)NC(=O)[C@@H]2CCCN2C(=O)[C@H](Cc2c[nH]cn2)NC1=O (cyclo(FYIHP)) [listing 1 of 2 here]	> 10	
CC[C@H](C)[C@@H]1NC(=O)[C@H](Cc2ccc(O)cc2)NC(=O)[C@H](Cc2ccccc2)NC(=O)[C@@H]2CCCN2C(=O)[C@H](Cc2c[nH]cn2)NC1=O (cyclo(FYIHP)) [listing 2 of 2 here]		<0.1
